# Earlier results, collected in patent US12357678B2, “Cancer stem cell targeted cancer vaccines” (priority 2012, dated 2025).
# Legend:
# [1] = tested on: HLA-A2; conditions: mutant vs wild type IL-13Rα2345-353
# [2] = tested on: T cells; conditions: mutant vs wild type IL-13Rα2345-353
# [3] = tested on: IL-13Ra2 positive, HLA-A2 positive glioma cells
# [4] = tested on: cancer cells
substance,measurement,setting,value
"ALPFGFILV (Amino acid residues 345-353 of IL-13 Receptor alpha mutation of W to A at position 345 and I to V at position 353) [IL-13Rα2345-353:1A9V, IL-13Rα2 345-353 with mutation of W to A at position 345 and I to V at position 353]",affinity for HLA-A2 relative to wild type peptide,[1],increased the affinity for HLA-A2
same,T cell response (immunogenicity) relative to wild type peptide,[2],more robust T cell response
same,"killing of glioma cells by T cells stimulated with the peptide, relative to wild type",[3]; T cells stimulated with mutant vs wild type peptide,more effective at killing glioma cells
"ELMLG EFLKL (ELMLGEFLKL; Amino acid residues 95-104 of Survivin with a methionine substitution at position 3) [SEQ ID NO:9, Survivin 95-104 with a methionine substitution at position 3]",activation of T cells cytotoxic to cancer cells,[4],able to activate T cells that were cytotoxic to cancer cells
same,immunogenicity of survivin analog peptide,[4],immunogenic
"WLPFGFILI (Amino acid residues 345-353 of IL-13 Receptor alpha; listed as Homo sapiens) [IL-13Rα2345-353, Amino acid residues 345-353 of Interleukin-13 Receptor alpha]",lysis of glioma cells by CTL lines generated by stimulation of CD8+ cells with the peptide,"[3]; IL-13Ra2 positive, HLA-A2 positive glioma cells, antigen-specific",efficiently lysed
